This note sets out measurements from publication PMC2790607, “Finding of the Low Molecular Weight Inhibitors of Resuscitation Promoting Factor Enzymatic and Resuscitation Activity” (PLoS ONE, 2009).

What is called melting point is the temperature, or range, at which the solid turns liquid. One may read the IC50 as the concentration at which inhibition is half-maximal.

The structures appear in SMILES notation. Converted amounts (≈) assume the structure as drawn. Read-outs that look alike come from different tables or passages of the source.

The subject of data set [1] is M. tuberculosis "non-culturable" cells. The format is cell-based, Mycobacterium tuberculosis. To be noted: for effect on resuscitation of M. tuberculosis "non-culturable" cells: 10 µg/ml, MPN assay, versus untreated resuscitating cells; for MPN, logarithmic transformation of cell concentration (cells/ml): inhibitor 10 µg/ml.
Data set [2] has as its system M. smegmatis "non-culturable" cells. Type of data set: cell-based, Mycobacterium smegmatis. To be noted: MPN assay.
The subject of data set [3] is Micrococcus luteus. The data set is described as follows: microbe, parasite or virus in culture. Type of data set: cell-based. As to conditions: for effect on M. luteus growth: NB liquid medium; for MIC: Micrococcus luteus, lowest concentration which suppresses growth, determined during 24 hours, NI = no inhibition was observed.
Data set [4] deals with ΔDUFRpf B (Mycobacterium tuberculosis, UniProt P9WG29). The format is binding, M. tuberculosis.
Sequence of ΔDUFRpf B (P9WG29 whole entry, looked up, stated change not applied): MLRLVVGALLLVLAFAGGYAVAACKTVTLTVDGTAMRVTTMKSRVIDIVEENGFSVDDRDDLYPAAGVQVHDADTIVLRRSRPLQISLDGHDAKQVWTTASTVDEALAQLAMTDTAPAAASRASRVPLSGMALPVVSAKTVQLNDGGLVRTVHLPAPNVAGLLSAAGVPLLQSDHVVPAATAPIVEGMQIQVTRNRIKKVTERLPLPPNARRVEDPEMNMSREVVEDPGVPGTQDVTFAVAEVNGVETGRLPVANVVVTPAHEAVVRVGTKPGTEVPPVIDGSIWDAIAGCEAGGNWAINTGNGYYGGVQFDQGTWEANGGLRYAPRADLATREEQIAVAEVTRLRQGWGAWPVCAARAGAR
Data set [5] has as its target T1, Rpf Sm (Micrococcus luteus, UniProt O86308).
T1 construct: His-tag (inferred from the pET19b vector and the Ni2+-chelation purification); made in house; host or cells: E. coli HSM174 (DE3)
The data set is described as follows: Muralytic activity of Rpf, 4-MUF-3-NAG hydrolysis. Type of data set: biochemical, M. luteus. How it is done: The truncated form of M.luteus Rpf (RpfSm) was used for the analysis. The truncated protein contained conserved Rpf domain and additional 20 amino acids of the gene product, corresponding to the following amino acid sequence:
To determine a muralytic activity of the recombinant Rpfs', 4-methylumbelliferyl-β-D-N, N′, N″-triacetylchitotrioside (4-MUF-3-NAG) (“Sigma”, Germany) was applied. […] A number of experiments were performed in the presence of NPT compounds, in concentration range of 0.5–10 µg/ml. After 3 hours of incubation at 37°C, 2 µl of 10 M NaOH was added and the samples were frozen and kept at −20°C. […] The intensity of fluorescence was detected by the RF-5301PC fluorimeter (“SHIMADZU”, Japan) using excitation wavelength of 364 nm and a read-out of 448 nm.

The subject of data set [6] is M. smegmatis. Type of data set: cell-based, Mycobacterium smegmatis. As to conditions: at 0.1–1 µg/ml (not shown).
The mark [7] stands for this setting: pH 6.0, 3 hours at 37°C, NI = no inhibition was observed, read-out: 4-MUF-3-NAG hydrolysis IC50, Rpf Sm (converted).

T1 sequence (O86308 42-134): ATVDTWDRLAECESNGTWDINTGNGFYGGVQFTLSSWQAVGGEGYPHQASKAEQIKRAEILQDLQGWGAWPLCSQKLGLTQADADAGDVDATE

Turning to `N#CSc1ccc(C(=O)O)cc1[N+](=O)[O-]` [VIII, 3-Nitro-4-thiocyanatobenzoic acid], the melting point is 220 to 224 °C. The “effect on resuscitation of M. tuberculosis "non-culturable" cells” value in data set [1] was “had no influence on the resuscitation kinetics”. Further, the “effect on resuscitation of M. smegmatis "non-culturable" cells” value in data set [2] (inhibitors at 1 µg/ml, 2 weeks at 37°C) is reported as “failure”. Also, the “effect on M. luteus growth” value in data set [3] was “had no effect on M. luteus growth”. In data set [4] (fluorescence studies), the “interaction with the buried tryptophanes of ΔDUFRpfB” value is recorded as “doesn't interact with the buried tryptophanes”.
In turn, `N#CSc1ccc(C#N)cc1[N+](=O)[O-]` [V, 3-Nitro-4-thiocyanobenzonitryl] registered a melting point of 143 to 145 °C. The “MPN, logarithmic transformation of cell concentration (cells/ml)” value (“MPN, logarithmic transformation” for short) in data set [1] (time 0 days) came to 3.48. In addition, the “MPN, logarithmic transformation” value in data set [1] (time 14 days) was determined as 3.48. Also, the “MPN, logarithmic transformation” value in data set [1] (time 19 days) came out at 3.48. In addition, in data set [1] (time 21 days), the “MPN, logarithmic transformation” value amounted to 3.48. In data set [1] (time 23 days), the “MPN, logarithmic transformation” value came to 3.48. Also, in data set [1] (time 27 days), the “MPN, logarithmic transformation” value worked out at 3.86. Moreover, the “MPN, logarithmic transformation” value in data set [1] (time 30 days) is given as 4.30. Further, the “MPN, logarithmic transformation” value in data set [1] (time 33 days) came out at 5.66. For the same compound, the “MPN, logarithmic transformation” value in data set [1] (time 36 days) turned out to be 5.66. For the same compound, in data set [1] (time 40 days), the “MPN, logarithmic transformation” value was determined as 5.66. The concentration for half-maximal inhibition (IC50) in data set [5] is 25.3 µM. The compound also gave an MIC in data set [3] of 1 to 5 µg/mL (≈ 4.87 to 24.4 µM).
With `CC(C)Nc1ncnc(SC#N)c1[N+](=O)[O-]` [II, 4-Isopropylamino-5-nitro-6-thiocyanatopyrimidine], the melting point was in the range of 96 to 98 °C. Besides, the “effect on M. luteus growth” value in data set [3] is “had no effect on M. luteus growth”.
Regarding `COC(=O)c1ccc(SC#N)c([N+](=O)[O-])c1` [IX, 3-Nitro-4-thiocyanatobenzoic acid methyl ester], the “effect on resuscitation of M. tuberculosis "non-culturable" cells” value in data set [1] was “increased time which need for developing of visible growth in the MPN assay and decreased the final values of MPN”. The “MPN, logarithmic transformation” value is 3.48 in data set [1] (time 0 days); 3.48 in data set [1] (time 14 days); 3.48 in data set [1] (time 19 days); 3.56 in data set [1] (time 21 days); 3.96 in data set [1] (time 23 days); 4.32 in data set [1] (time 27 days). The “MPN, logarithmic transformation” value in data set [1] (time 30 days), in data set [1] (time 33 days), in data set [1] (time 36 days) and in data set [1] (time 40 days) was 5.66 in each case. The “concentrations active in suppressing resuscitation of M. smegmatis” value in data set [2] is 0.1 to 1 µg/mL. The compound also showed a half-inhibitory concentration (IC50) in data set [5] of 23.5 µM. Moreover, the “growth of active cells of M. smegmatis” value in data set [6] is “did not inhibit growth”. In data set [3], this compound yielded an MIC of 5 to 10 µg/mL (≈ 21 to 42 µM).
On to `[I-].[K+]` [iodide, reference compound], for which, in data set [4] (modified Stern-Volmer equation, excitation 280 nm, emission 340 nm), the “accessible fraction of ΔDUFRpfB tryptophanes (fa)” value is on record as approximately 40%.
Compound `COc1ncnc(SC#N)c1[N+](=O)[O-]` [I, 4-Methoxy-5-nitro-6-thiocyanatopyrimidine] gave a melting point of 54 to 56 °C. Further, the “effect on resuscitation of M. tuberculosis "non-culturable" cells” value in data set [1] is on record as “had no influence on the resuscitation kinetics”. The IC50 in data set [5] (setting [7]) was 25 µM.
`CC(=O)c1ccc(SC#N)c([N+](=O)[O-])c1` [VI, 4-Acetyl-2-nitrophenyl thiocyanate] came in with a melting point of 96 to 98 °C. Also, the “MPN, logarithmic transformation” value in data set [1] (time 0 days) was 3.48. The “MPN, logarithmic transformation” value in data set [1] (time 14 days) came out at 3.48. Further, the “MPN, logarithmic transformation” value in data set [1] (time 19 days) was determined as 3.48. In data set [1] (time 21 days), the “MPN, logarithmic transformation” value is 3.48. In data set [1] (time 23 days), the “MPN, logarithmic transformation” value was determined as 3.56. Also, in data set [1] (time 27 days), the “MPN, logarithmic transformation” value is reported as 3.96. Besides, the “MPN, logarithmic transformation” value in data set [1] (time 30 days) amounted to 4.66. Also, the “MPN, logarithmic transformation” value in data set [1] (time 33 days) amounted to 5.38. In addition, in data set [1] (time 36 days), the “MPN, logarithmic transformation” value is 5.97. Moreover, the “MPN, logarithmic transformation” value in data set [1] (time 40 days) is 6.18. The compound further had an IC50 in data set [5] of 9.9 µM. The same compound yielded an MIC in data set [3] of 5 µg/mL (≈ 22.5 µM).
With `N#CSc1ccc(C(F)(F)F)cc1[N+](=O)[O-]` [IV, 2-Nitro-4-(trifluoromethyl)-phenylthiocyanate], the melting point lay in the range of 78 to 81 °C. The “effect on resuscitation of M. tuberculosis "non-culturable" cells” value in data set [1] is “increased time which need for developing of visible growth in the MPN assay and decreased the final values of MPN”. The “MPN, logarithmic transformation” value in data set [1] (time 0 days) is on record as 3.48. Further, the “MPN, logarithmic transformation” value in data set [1] (time 14 days) turned out to be 3.48. Further, the “MPN, logarithmic transformation” value in data set [1] (time 19 days) came out at 3.56. Also, the “MPN, logarithmic transformation” value in data set [1] (time 21 days) was determined as 3.96. The “MPN, logarithmic transformation” value in data set [1] (time 23 days) was determined as 4.36. Besides, in data set [1] (time 27 days), the “MPN, logarithmic transformation” value amounted to 5.38. Moreover, the “MPN, logarithmic transformation” value in data set [1] (time 30 days) is reported as 5.66. In data set [1] (time 33 days), the “MPN, logarithmic transformation” value came out at 5.66. In data set [1] (time 36 days), the “MPN, logarithmic transformation” value worked out at 5.66. For the same compound, in data set [1] (time 40 days), the “MPN, logarithmic transformation” value came to 5.66. Further, the “concentrations active in suppressing resuscitation of M. smegmatis” value in data set [2] lay within 0.1 to 1 µg/mL. Further, the IC50 in data set [5] (setting [7]) was 21.4 µM. Besides, the “growth of active cells of M. smegmatis” value in data set [6] is “did not inhibit growth”. This compound had an MIC in data set [3] of 5 µg/mL (≈ 20.1 µM).
As for `CCOC(=O)c1ccc(SC#N)c([N+](=O)[O-])c1` [X, 3-nitro-4-thiocyanatobenzoic acid ethyl ester], in data set [1], the “effect on resuscitation of M. tuberculosis "non-culturable" cells” value is “increased time which need for developing of visible growth in the MPN assay and decreased the final values of MPN”. Further, the “MPN, logarithmic transformation” value came out at 3.48 in data set [1] (time 0 days); 3.48 in data set [1] (time 14 days); 3.48 in data set [1] (time 19 days); 3.48 in data set [1] (time 21 days); 3.48 in data set [1] (time 23 days); 4.36 in data set [1] (time 27 days). Further, the “MPN, logarithmic transformation” value in data set [1] (time 30 days) is 4.97; in data set [1] (time 33 days), 5.38; in data set [1] (time 36 days), 5.38; in data set [1] (time 40 days), 5.38. In addition, the IC50 in data set [5] (setting [7]) was 10.3 µM. The MIC in data set [3] amounted to 10 µg/mL (≈ 39.6 µM).
